Experimental findings from article PMC6765138 (Nucleic Acids Research, 2019) are described below.

One series concerns the target T1, MtPrpR81–486 (Mycobacterium tuberculosis, UniProt O06581).
T1 construct: gene prpR

The series “SEC” concerns the molecule itself. The experiment in a line: SEC.

On to `CC(C)(COP(=O)(O)OP(=O)(O)OC[C@H]1O[C@@H](n2cnc3c(N)ncnc32)[C@H](O)[C@@H]1OP(=O)(O)O)[C@@H](O)C(=O)NCCC(=O)NCCS` [Coenzyme A], for which the “X-ray crystal structure of co-purified ligand; LC-HRMS of extracted ligand” value on MtPrpR81–486 was “the predominant CoA was built into all protein chains”.

B1: MtPrpR_(81–486) (Mycobacterium tuberculosis PrpR, Rv1129c, residues 81-486, N-terminal His6-tag) (domain or fragment)
chain: DARLVADLSDVFTDIGVEHAVSGAQIEEFVARMPEVGHSLVAVHRRLRAATEELEGYRSRATAETELPPARPMPFEEVRDFFYDRNNYIHDLDMAAERMFTESGMRTGGLDIQLAELMRDRFGISVVIDDNLPDTAKRRYHPDTKVLRVAHWLMPGQRAFQIATQLALVGQSDLISSIVATDDQLSTEARGVARIGLANYFAGAFLLPYREFHRAAEQLRYDIDLLGRRFGVGFETVCHRLSTLQRPRQRGIPFIFVRTDKAGNISKRQSATAFHFSRVGGSCPLWVVHDAFAQPERIVRQVAQMPDGRSYFWVAKTTAADGLGYLGPHKNFAVGLGCDLAHAHKLVYSTGVVLDDPSTEVPIGAGCKICNRTSCAQRAFPYLGGRVAVDENAGSSLPYSSTEQSV
notes: also called native PrpR_(81–486); wild-type MtPrpR_(81–486); not shown: His6, N-terminal, kept
In general, stoichiometry N refers to the number of molecules, sites or subunits per partner or assembly. On to B1, for which the “stoichiometry N” value in the series “SEC” was 4.
